Literature values as cited in patent publication EP0893486B1, “Acrylic compositions for consolidation of soils and concrete in general” (Draco Italiana S.p.A., priority 1997, dated 1999).

Conditions: classification of the single monomer

For polyethyleneglycol-600-dimethacrylate, the classified as is listed as “irritants”.
For polyethyleneglycol-400-diacrylate, the classified as is given as “irritants”.
For C=CC(=O)OCC(CC)(COCC(CC)(COC(=O)C=C)COC(=O)C=C)COC(=O)C=C [Ditrimetbylolpropanetetraacrylate], the classified as is given as “irritants”.
In the case of C=C(C)C(=O)OCC(CC)(COC(=O)C(=C)C)COC(=O)C(=C)C [trimethylolpropanetrimethacrylate], the classified as is given as “irritants”.
In the case of “trimethylolpropanetriacrylate-ethoxylate”, the classified as is given as “irritants”.
In the case of polyethyleneglycolmonoacrylate, the classified as is listed as “irritants”.
For C=C(C)C(=O)OCCO [2-hydroxyethylmethacrylate], the classified as is given as “irritants”.
